Assay results: patent US20240082218A1, “PHARMACEUTICAL COMBINATIONS COMPRISING A KRAS G12C INHIBITOR AND USES OF A KRAS G12C INHIBITOR FOR THE TREATMENT OF CANCERS” (priority 2020, published 2024)
Entries after “also recorded” stand apart in the source; their conditions may differ. Read-outs that look alike come from different tables or passages of the source.

Tests used:
[1] = Oral exposure and tolerability in mouse
[2] = tested on: Ba/F3 cells expressing FLAG-KRAS G12C/Y96D; experiment: Ba/F3 3-day proliferation, Cell titer glo (Example 12); format: cell-based, murine; details: Mus musculus
Protocol: (§1) The parental Ba/F3 cells were cultured in the presence of 5 ng/ml of recombinant murine IL-3 (Life Technologies, #PMC0035).
(§2) The mutant plasmids were transfected into the Ba/F3 WT cells by electroporation with the NEON transfection kit (Invitrogen, #MPK10025).
(§3) Ba/F3 cells are normally dependent on IL-3 to survive and proliferate, however, by expressing oncogenes they are able to switch their dependency from IL-3 to the expressed oncogene. […] Cell number and viability was measured every three days and after seven days the IL-3 withdrawal was completed.
(§4) Treatment was performed on the same day with a Tecan D300e drug dispenser. Viability was detected on the same day of treatment for the start plate (Day 0) and three days post-treatment (Day 3) using the CellTiter-Glo Luminescent Cell Viability Assay (Promega, #G7573) on a Tecan infinitiy M200 Pro reader (Intergration Time 1000 ms).
(§5) To determine the growth, the three days post-treatment (Day 3) readout was normalized to start plate (Day 0). The percentage viability was then calculated by normalizing treated wells to DMSO treated control samples. XLfit was used to make the fitted curve with a Sigmoidal Dose-Response Model (four-parameter curve) (FIG. 7).

[3] = tested on: Ba/F3 cells expressing FLAG-KRAS G12C/H95R; experiment: as above; format: cell-based, murine; details: Mus musculus
Protocol: as §1, §2, §3, §4, §5

[4] = tested on: Ba/F3 cells expressing FLAG-KRAS G12C/R68S; experiment: as above; format: cell-based, murine; details: Mus musculus
Protocol: as §1, §2, §3, §4, §5

[5] = tested on: Ba/F3 cells expressing FLAG-KRAS G12C/Y96C; experiment: as above; format: cell-based, murine; details: Mus musculus
Protocol: as §1, §2, §3, §4, §5

[6] = Oral exposure and tolerability in dog
NCI-H2030 xenograft = experiment: Anti-tumor activity in NCI-H2030 xenografts; format: in vivo, mice; details: 10, 30 and 100 mg/kg oral daily
KRAS WT = KRAS WT (Homo sapiens, UniProt P01116); experiment: cRAF recruitment 6 h cellular assay; format: cell-based
4-week toxicity study = format: in vivo; details: dog
[7] = tested on: MIA PaCa-2 (KRASG12C pancreas) xenograft; experiment: Anti-tumor activity in MIA PaCa-2 xenografts; format: in vivo, mice
[8] = tested on: MEK Q56P mutated cell lines; experiment: pERK 6 h cellular assay; format: cell-based; details: Hec50, 6 h, read-out: pERK 6 h EC50 MEK^Q56P
[9] = tested on: KRAS G12C-mutated cell lines; experiment: pERK 6 h cellular assay; format: cell-based; details: Hec50, 6 h, read-out: pERK 6 h EC50 KRAS^G12C
DUSP6 mRNA transcript = experiment: In vivo DUSP6 mRNA in MIA PaCa-2 xenografts; details: 30 mg/kg QD oral
KRASG12C [10] = target: T1, KRASG12C (Homo sapiens, UniProt P01116, G12C); experiment: In vivo KRASG12C target occupancy in NCI-H2122 xenografts; parameters: endogenous in cells; details: 100 mg/kg QD oral
Protocol: (§6) KRASG12C inhibition can be assessed by measuring free KRASG12C levels (target occupancy) and other biomarkers in the MAPK signaling pathway, such as decreased levels of phosphorylated ERK1/2 (pERK) and downregulation of DUSP6 mRNA transcript. […] In the less sensitive NCI-H2122 xenografts, orally administered JDQ443 (100 mg/kg QD) achieved approximately 80% KRASG12C inhibition and 90% decrease in DUSP6 mRNA transcript, causing stasis which is the maximum response in this model upon MAPK pathway inhibition.

Blood pharmacokinetics = details: in vivo
KRASG12C [11] = target: T1, KRASG12C; experiment: In vivo KRASG12C target occupancy in MIA PaCa-2 xenografts; parameters: endogenous in cells; host or cells: MIA PaCa-2 tumour xenografts in mice
Protocol: as §6

pERK = experiment: In vitro pERK inhibition in H358 cancer cells; format: cell-based; details: Homo sapiens, NCI-H358
Protocol: as §6

[12] = tested on: Lu99 KRAS G12C lung carcinoma xenograft; experiment: Anti-tumor efficacy in Lu99 KRAS G12C lung carcinoma xenografts; format: in vivo, mice
Protocol: It carries the allele NM_033360.4(KRAS):c.34G>T and consequently a heterozygous KRAS Gly12Cys mutation. Lu99 cells were grown in sterile conditions in a 37° C. incubator with 5% CO2 for two weeks. The cells were kept in RPMI media supplemented with 10% FCS, 2 mM L-Glutamin, 1 mM sodium pyruvate and 10 mM HEPES, and split 1:6 every 3 days. […] On the day of injection, cells were harvested after 8 passages in total, including passages from the vendor. Cells were resuspended in 50% HBSS and 50% Matrigel at a final concentration of 10·10^6 cells/ml.
Experiments were performed with female nude mice (Charles River Laboratories, Crl:NU(NCr)-Foxn1nu Homozygous). […] Animals were allowed to accommodate at least for 7 days.
Mice were injected subcutaneously with Lu99 human NSCLC cells to induce xenograft tumors and randomized into treatment groups when the mean tumor volume reached ˜250 mm^3.
The control group received a solution of 0.1% Tween 80 (Fisher Scientific AG #BP338-500) and 0.5% Methylcellulose in water.
The treatment period was between 9 to 28 days, depending on the groups.
Tumor growth was monitored regularly post cell inoculation and animals were randomized into treatment groups (n=6) when TV reached appropriate volume. During the treatment period, xenograft tumor sizes were measured about 2-3 times per week manually with calipers, and the TV was estimated in mm^3 using the formula: Length×Width^2/2.
Mice were injected subcutaneously with Lu99 human NSCLC cells to induce xenograft tumors and randomized into treatment groups when the mean tumor volume reached ˜200 mm^3. […] The treatment period was between 14 to 35 days, depending on the groups. Animals treated with vehicle were terminated at day 14. […] Tumor volumes were recorded and are represented as mean±SEM (standard error of the mean) for each group. Anti-tumor response of treatment groups vs. vehicle group was calculated at day 14 as % T/C or % regression.

[13] = tested on: NCI-H2122 (KRASG12C lung) xenograft; format: in vivo, mice
HRAS WT = HRAS WT (Homo sapiens, UniProt P01112); experiment: cRAF recruitment 6 h cellular assay; format: cell-based
HRAS WT, sequence (P01112 whole entry): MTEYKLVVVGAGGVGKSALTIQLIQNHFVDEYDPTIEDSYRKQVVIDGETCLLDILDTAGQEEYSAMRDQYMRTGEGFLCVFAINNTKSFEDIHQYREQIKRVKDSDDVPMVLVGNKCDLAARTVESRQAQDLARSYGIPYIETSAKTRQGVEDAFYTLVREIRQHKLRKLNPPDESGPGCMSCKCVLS

[14] = Oral exposure and tolerability in rat
KRASG12C [15] = target: T1, KRASG12C; experiment: cRAF recruitment 6 h cellular assay; format: cell-based
[16] = BaF3, 72 h, 3 days, 4 independent experiments, read-out: GI50 ± St DV
[17] = 10, 30 and 100 mg/kg oral daily

With C=CC(=O)N1CC2(CC(n3nc(-c4ccc5c(cnn5C)c4)c(-c4c(Cl)c(C)cc5[nH]ncc45)c3C)C2)C1 (single isomer, unassigned) [Compound A, 1-{6-[(4M)-4-(5-Chloro-6-methyl-1H-indazol-4-yl)-5-methyl-3-(1-methyl-1H-indazol-5-yl)-1H-pyrazol-1-yl]-2-azaspiro[3.3]heptan-2-yl}prop-2-en-1-one] the oral bioavailability [1] was “orally bioavailable”, the tolerability [1] was “well-tolerated” and the GI50 [2, 16] was over 1000 nM. The GI50 ([2]; BaF3, read-out: GI50) was over 1000 nM, the GI50 [3, 16] was 24 ± 6 nM and the GI50 ([3]; BaF3, read-out: GI50) was 24 ± 6 nM. The GI50 [4, 16] was over 1000 nM, the GI50 ([4]; BaF3, read-out: GI50) was over 1000 nM and the GI50 [5, 16] was over 1000 nM. The GI50 ([5]; BaF3, read-out: GI50) was over 1000 nM, the oral bioavailability [6] was “orally bioavailable” and the tolerability [6] was “well-tolerated”. The “pattern of maximal response” value (NCI-H2030 xenograft) was “moderate tumor growth inhibition”, the EC50 (KRAS WT) was over 10000 nM and the “tolerability in 4-week toxicity study” value (4-week toxicity study) was “well tolerated”. For the same compound, the anti-tumor activity ([7]; 3 mg/kg daily oral) was “tumor stasis”, the anti-tumor activity ([7]; 5 mg/kg twice daily, compared with 10 mg/kg daily) was “comparable regression” and the anti-tumor activity ([7]; 10 mg/kg daily oral) was “tumor regression”. The anti-tumor activity ([7]; 15 mg/kg twice daily, compared with 30 mg/kg qd) was “same tumor regression”, the “tumor growth inhibition by schedule” value ([7]; 30 mg/kg daily compared to 30 mg/kg q3d or 90 mg/kg q3d) was “better tumor growth inhibition” and the anti-tumor activity ([7]; 30 mg/kg daily oral) was “tumor regression”. For the same compound, the anti-tumor activity ([7]; 100 mg/kg daily oral) was “tumor regression”, the “pattern of maximal response” value [7, 17] was “regression” and the EC50 [8] was over 10000 nM. The EC50 [9] was 20 nM, the “decrease in DUSP6 mRNA transcript” value (DUSP6 mRNA transcript) was about 75% and the inhibition at 100 mg/kg (KRASG12C [10]) was about 80%. For the same compound, the half-life (Blood pharmacokinetics) was about 2 h, the inhibition at 30 mg/kg (KRASG12C [11]; MIA PaCa-2 xenografts, 30 mg/kg QD oral) was about 90% and the “KRASG12C TO t1/2” value (KRASG12C [11]; in vivo, MiaPaCa2 model) was about 66 h. For the same compound, the IC50 (pERK) was 20 nM, the “pattern of maximal response” value ([12]; LU99, 10, 30 and 100 mg/kg oral daily) was “regression” and the “anti-tumor response (Example 7)” value ([12]; Lu99, oral, Compound A 100 mg/kg once daily, TNO155 10 mg/kg twice daily continuous, alone or in combination) was “tumor regression for approximately two weeks”. For the same compound, the “anti-tumor response (Example 6)” value ([12]; Lu99, oral, Compound A 100 mg/kg once daily, TNO155 10 mg/kg twice daily, alone or in combination, up to 28 days) was “tumor regression for three weeks”, the anti-tumor activity ([13]; 10 mg/kg daily oral) was “weak tumor-growth inhibition” and the anti-tumor activity ([13]; 30 mg/kg daily oral) was “moderate tumor-growth inhibition; also recorded: slightly less than tumor stasis”. For the same compound, the anti-tumor activity ([13]; 50 mg/kg twice daily oral) was “approximate tumor stasis”, the anti-tumor activity ([13]; 100 mg/kg daily oral) was “approximate tumor stasis” and the anti-tumor activity ([13]; 100 mg/kg daily oral, listed as JDQ443) was “stasis”. The “pattern of maximal response” value [13, 17] was “stasis-like”, the EC50 (HRAS WT) was over 10000 nM and the oral bioavailability [14] was “orally bioavailable”. The tolerability [14] was “well-tolerated” and the EC50 (KRASG12C [15]) was 20 nM.
